Measurements as given in US20240109881A1, “Heteroaryl Compounds as Ligand Directed Degraders of IRAK4” (Bristol-Myers Squibb Company, priority 2022, published 2024).

Molecular target: T1, IRAK4 (Homo sapiens, UniProt Q9NWZ3)
T1 construct: endogenous in cells; host or cells: THP-1 cells
T1 sequence (Q9NWZ3 1-460): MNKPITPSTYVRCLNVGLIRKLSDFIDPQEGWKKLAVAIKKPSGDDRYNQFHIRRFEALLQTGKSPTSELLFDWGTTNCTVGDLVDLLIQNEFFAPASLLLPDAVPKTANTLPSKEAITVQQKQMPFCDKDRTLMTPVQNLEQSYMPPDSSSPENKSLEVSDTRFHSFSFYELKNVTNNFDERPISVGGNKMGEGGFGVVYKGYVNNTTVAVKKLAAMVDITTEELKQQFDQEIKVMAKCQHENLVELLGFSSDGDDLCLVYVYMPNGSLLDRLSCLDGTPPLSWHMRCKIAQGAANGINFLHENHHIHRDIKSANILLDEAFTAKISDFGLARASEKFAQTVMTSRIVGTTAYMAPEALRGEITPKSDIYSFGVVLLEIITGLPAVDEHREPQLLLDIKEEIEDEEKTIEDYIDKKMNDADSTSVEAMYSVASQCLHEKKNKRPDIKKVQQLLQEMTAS
Assay: LVL THP1 HTRF (THP1 Homogeneous Time Resolved Fluorescence)
Type: cell-based
Details: THP1 cells, 18 h incubation with compound; for DC50: read-out: LVL THP1 HTRF EC50
In short: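 IRAK4 HTRF read-out (665/615 nm ratio, anti-IRAK4 d2 acceptor and K donor, 18 h dark incubation at room temperature) on lysates of THP-1 cells. Cells were treated 18 h at 37° C. with 20 nL compound in DMSO, in colorless RPMI with 10% FBS, with a duplicate CTG plate.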

C[C@H](C#N)Nc1cc(-n2ncc3cc(C#N)cnc32)ncc1C(=O)N[C@H]1CC[C@H](CCN2CCN(c3ccc(N4CCC(=O)NC4=O)cc3)CC2)CC1 [P-321]
LVL THP1 HTRF YMIN: 24.2% | DC50: 645 nM

C[C@H](C#N)Nc1cc(-n2ncc3cc(C#N)cnc32)ncc1-n1cc(C[C@H]2CC[C@H](CN3CCN(c4ccc(C5CCC(=O)NC5=O)cc4)CC3)CC2)nn1 (stereo partly drawn) [P-322]
LVL THP1 HTRF YMIN: 4.4% | DC50: 16.5 nM

C[C@H](C#N)Nc1cc(-n2ncc3cc(C#N)cnc32)ncc1-n1cc([C@H]2CC[C@H](CCN3CC(Oc4ccc(N5CCC(=O)NC5=O)cc4)C3)CC2)nn1 [P-324]
LVL THP1 HTRF YMIN: 107.9% | DC50: 1000 nM

C[C@H](C#N)Nc1cc(-n2ncc3cc(C#N)cnc32)ncc1-n1cc([C@H]2CC[C@H](CCN3CC4(CC(c5ccc(N6CCC(=O)NC6=O)cc5)C4)C3)CC2)nn1 [P-329]
LVL THP1 HTRF YMIN: 2.6% | DC50: 5.9 nM

C[C@H](C#N)Nc1cc(-n2ncc3cc(C#N)cnc32)ncc1-n1cc([C@H]2CC[C@H](CCN3CC=C(c4ccc(N5CCC(=O)NC5=O)cc4)CC3)CC2)nn1 [P-330]
LVL THP1 HTRF YMIN: 2.3% | DC50: 17.4 nM

Cc1cc(N2CCC(=O)NC2=O)ccc1C1CCN(CC[C@H]2CC[C@H](c3cn(-c4cnc(-n5ncc6cc(C#N)cnc65)cc4N[C@H](C)C#N)nn3)CC2)CC1 [P-334]
LVL THP1 HTRF YMIN: 23.5% | DC50: 58.7 nM

C[C@H](C#N)Nc1cc(-n2ncc3cc(C#N)cnc32)ncc1-n1cc([C@H]2CC[C@H](CCN3CCC(c4cccc5c(N6CCC(=O)NC6=O)nn(C)c45)CC3)CC2)nn1 [P-335]
LVL THP1 HTRF YMIN: 5.1% | DC50: 29.8 nM

Cc1cc(C2CCN(CC[C@H]3CC[C@H](c4cn(-c5cnc(-n6ncc7cc(C#N)cnc76)cc5N[C@H](C)C#N)nn4)CC3)CC2)ccc1N1CCC(=O)NC1=O [P-336]
LVL THP1 HTRF YMIN: 5.5% | DC50: 25.1 nM

C[C@H](C#N)Nc1cc(-n2ncc3cc(C#N)cnc32)ncc1-n1cc([C@H]2CC[C@H](CCN3CCC(c4ccc(C5(O)CCC(=O)NC5=O)cc4)CC3)CC2)nn1 (stereo partly drawn) [P-339]
LVL THP1 HTRF YMIN: 93.1% | DC50: 18.6 nM

C[C@H](C#N)Nc1cc(-n2ncc3cc(C#N)cnc32)ncc1-n1cc([C@H]2CC[C@H](CCN3CCC(c4ccc(N5CCC(=O)NC5=O)cc4)CC3)CC2)nn1 [P-340]
LVL THP1 HTRF YMIN: 22.4% | DC50: 582 nM

C[C@H](C#N)Nc1cc(-n2ncc3cc(C#N)cnc32)ncc1-n1cc([C@H]2CC[C@H](CCN3CCC(c4ccc(N5CCC(=O)NC5=O)nc4)CC3)CC2)nn1 [P-341]
LVL THP1 HTRF YMIN: 81.8% | DC50: 2.4 nM

C[C@H](C#N)Nc1cc(-n2ncc3cc(C#N)cnc32)ncc1-n1cc([C@H]2CC[C@H](CCN3CCC(c4ccc(N5CCC(=O)NC5=O)c(Cl)c4)CC3)CC2)nn1 [P-342]
LVL THP1 HTRF YMIN: 7.1% | DC50: 22.1 nM

C[C@H](C#N)Nc1cc(-n2ncc3cc(C#N)cnc32)ncc1-n1cc([C@H]2CC[C@H](CCN3CCC(c4ccc(NC5CCC(=O)NC5=O)cc4)CC3)CC2)nn1 (stereo partly drawn) [P-343]
LVL THP1 HTRF YMIN: 87.0% | DC50: 103 nM

C[C@H](C#N)Nc1cc(-n2ncc3cc(C#N)cnc32)ncc1-n1cc([C@H]2CC[C@H](CCN3CCC(c4cn(C5CCC(=O)NC5=O)nn4)CC3)CC2)nn1 (stereo partly drawn) [P-344]
LVL THP1 HTRF YMIN: 8.9% | DC50: 91.2 nM

C[C@H](C#N)Nc1cc(-n2ncc3cc(C#N)cnc32)ncc1-n1cc([C@H]2CC[C@H](CCN3CCC(c4ccc(N5CCC(=O)NC5=O)cn4)CC3)CC2)nn1 [P-345]
LVL THP1 HTRF YMIN: 87.0% | DC50: 1000 nM

C[C@H](C#N)Nc1cc(-n2ncc3cc(C#N)cnc32)ncc1-n1cc([C@H]2CC[C@H](CCN3CCC(n4cc(C5CCC(=O)NC5=O)cn4)CC3)CC2)nn1 (stereo partly drawn) [P-346]
LVL THP1 HTRF YMIN: 17.5% | DC50: 92.8 nM

C[C@H](C#N)Nc1cc(-n2ncc3cc(C#N)cnc32)ncc1-n1cc([C@H]2CC[C@H](CCN3CCC(n4cc(NC5CCC(=O)NC5=O)cn4)CC3)CC2)nn1 (stereo partly drawn) [P-348]
LVL THP1 HTRF YMIN: 13.1% | DC50: 94.9 nM

C[C@H](C#N)Nc1cc(-n2ncc3cc(C#N)cnc32)ncc1-n1cc([C@H]2CC[C@H](CCN3CCC(n4ccc(C5(F)CCC(=O)NC5=O)cc4=O)CC3)CC2)nn1 (stereo partly drawn) [P-349]
LVL THP1 HTRF YMIN: 14.6% | DC50: 29.7 nM

C[C@H](C#N)Nc1cc(-n2ncc3cc(C#N)cnc32)ncc1-n1cc([C@H]2CC[C@H](CCN3CCC(n4ccc(C5CCC(=O)NC5=O)cc4=O)CC3)CC2)nn1 (stereo partly drawn) [P-350]
LVL THP1 HTRF YMIN: 3.7% | DC50: 2.2 nM

C[C@H](C#N)Nc1cc(-n2ncc3cc(C#N)cnc32)ncc1-n1cc([C@H]2CC[C@H](CCN3CCC(n4nc(N5CCC(=O)NC5=O)c5ccccc54)CC3)CC2)nn1 [P-351]
LVL THP1 HTRF YMIN: 69.0%

C[C@H](C#N)Nc1cc(-n2ncc3cc(C#N)cnc32)ncc1-n1cc([C@H]2CC[C@H](CCN3CCC(O)(c4ccc(C5CCC(=O)NC5=O)cc4)CC3)CC2)nn1 (stereo partly drawn) [P-352]
LVL THP1 HTRF YMIN: 2.1% | DC50: 3.8 nM

C[C@H](C#N)Nc1cc(-n2ncc3cc(C#N)cnc32)ncc1-n1cc([C@H]2CC[C@H](CCN3CCC(O)(c4ccc(N5CCC(=O)NC5=O)cc4)CC3)CC2)nn1 [P-353]
LVL THP1 HTRF YMIN: 88.5% | DC50: 1000 nM

C[C@H](C#N)Nc1cc(-n2ncc3cc(C#N)cnc32)ncc1-n1cc([C@H]2CC[C@H](CCN3CCCN(c4ccc(C5CCC(=O)NC5=O)cc4)CC3)CC2)nn1 (stereo partly drawn) [P-354]
LVL THP1 HTRF YMIN: 4.0% | DC50: 13.7 nM

C[C@H](C#N)Nc1cc(-n2ncc3cc(C#N)cnc32)ncc1-n1cc([C@H]2CC[C@H](CCN3CCCN(c4ccc(N5CCC(=O)NC5=O)cc4)CC3)CC2)nn1 [P-355]
LVL THP1 HTRF YMIN: 58.0% | DC50: 327 nM

C[C@H](C#N)Nc1cc(-n2ncc3cc(C#N)cnc32)ncc1-n1cc([C@H]2CC[C@H](CCN3CCN(c4ccc(N5CCC(=O)NC5=O)cc4)[C@@H](C)C3)CC2)nn1 [P-356]
LVL THP1 HTRF YMIN: 8.6% | DC50: 40.6 nM

C[C@H](C#N)Nc1cc(-n2ncc3cc(C#N)cnc32)ncc1-n1cc([C@H]2CC[C@H](CCN3CCN(c4ccc(N5CCC(=O)NC5=O)cn4)[C@@H](C)C3)CC2)nn1 [P-357]
LVL THP1 HTRF YMIN: 26.7% | DC50: 179 nM

C[C@H](C#N)Nc1cc(-n2ncc3cc(C#N)cnc32)ncc1-n1cc([C@H]2CC[C@H](CCN3CCN(c4ccc(N5CCC(=O)NC5=O)cc4)[C@H](C)C3)CC2)nn1 [P-358]
LVL THP1 HTRF YMIN: 0.6% | DC50: 4.8 nM

C[C@H](C#N)Nc1cc(-n2ncc3cc(C#N)cnc32)ncc1-n1cc([C@H]2CC[C@H](CCN3CCN(c4ccc(N5CCC(=O)NC5=O)cn4)[C@H](C)C3)CC2)nn1 [P-359]
LVL THP1 HTRF YMIN: −1.9% | DC50: 2.5 nM

Cc1cc(N2CCC(=O)NC2=O)ccc1N1CCN(CC[C@H]2CC[C@H](c3cn(-c4cnc(-n5ncc6cc(C#N)cnc65)cc4N[C@H](C)C#N)nn3)CC2)CC1 [P-360]
LVL THP1 HTRF YMIN: 4.5% | DC50: 27.6 nM

C[C@H](C#N)Nc1cc(-n2ncc3cc(C#N)cnc32)ncc1-n1cc([C@H]2CC[C@H](CCN3CCN(c4cccc5c(N6CCC(=O)NC6=O)cncc45)CC3)CC2)nn1 [P-361]
LVL THP1 HTRF YMIN: 1.2% | DC50: 5 nM

C[C@H](C#N)Nc1cc(-n2ncc3cc(C#N)cnc32)ncc1-n1cc([C@H]2CC[C@H](CCN3CCN(c4cccc5c(N6CCC(=O)NC6=O)nn(C)c45)CC3)CC2)nn1 [P-362]
LVL THP1 HTRF YMIN: 14.9% | DC50: 238 nM

Cc1cc(N2CCN(CC[C@H]3CC[C@H](c4cn(-c5cnc(-n6ncc7cc(C#N)cnc76)cc5N[C@H](C)C#N)nn4)CC3)CC2)ccc1N1CCC(=O)NC1=O [P-363]
LVL THP1 HTRF YMIN: 5.0% | DC50: 7.6 nM
